From patent US5504105A, “Pharmaceutical compositions containing ipriflavone, process for the preparation thereof and relative therapeutic use” (priority 1990, dated 1996)

Columns and labels:
[1] = human, in vivo
Method: (§1) In this comparative study all the conditions that could influence in some measure the bioavailability behaviour such as meals, drug administration or samples collection were strictly standardized.
(§2) The study was carried out in twelve young healthy volunteers in good health.
(§3) All the subjects were on a standard diet for all the period of the study.
(§4) For each treatment, after an overnight fast, each subject received at 8:00 a.m. on Day 1 the first oral dosing. From Day 1 to Day 10 the daily doses were administered during the meals. The two different treatments (A and B) were the following:
(§5) Treatment A: one 200 mg Ipriflavone Tablet 3 times daily at 8:00 a.m. , 1:00 p.m. and 8:00 p.m.;
(§6) Treatment B: one 300 mg Ipriflavone Scherer capsule two times daily at 8:00 a.m. and 8:00 p.m.

[2] = cited from earlier work
[3] = In-vivo bioavailability test: urinary excretion, capsules vs tablets, 8 healthy adult volunteers; design: species or system healthy adult volunteers (human); conditions: first study
Method: Concomitant drug treatment was avoided.
Urine was collected over the 24 hour period before treatment and on the tenth and eleventh days over the periods 0-24 hours and 24-48 hours after the assumption of the last dose. A homogenous sample (10 ml approx.) was prepared from the total urine excreted on the tenth and eleventh days; this sample was then stored at -20° C. until analised by HPLC.
The pharmacokinetic data were compared with those obtained administering an equivalent dose of ipriflavone in the standard formulation of 200 mg tablets three times daily (total dose 600 mg) according to an analogous study protocol.

[4] = in vivo; cited from earlier work
[5] = Further comparative bioavailability study: urinary excretion, treatments A and B, twelve healthy volunteers; format: in vivo, young healthy volunteers (human); conditions: each treatment, second study
Method: as §1, §2, §3, §4, §5, §6

Compound: CC(C)Oc1ccc2c(=O)c(-c3ccccc3)coc2c1 [Ipriflavone]
- mean increment in bioavailability [1]: 35%
- plasma levels / metabolization in man [1]: could not be quantified in several subjects
- half-life ([2]; human, in vivo, po): 9.8 h
- peak plasma concentration of the unchanged drug ([2]; human, in vivo, po): 170 ng/mL
- time to peak plasma concentration after administration ([2]; human, in vivo, po): 1.3 h
- absorption and metabolism in man ([2]; oral, man): absorbed rapidly and, furtherly, extensively metabolised equally rapidly
- unchanged ipriflavone in urine [3]: no detectable levels
- effectiveness in osteoporosis [4]: effective in preventing and treating post-menopausal and senile osteoporosis
- unchanged ipriflavone in urine [5]: no unchanged ipriflavone levels were found
